Experimental findings from patent US20250042889A1, “3CLPRO PROTEASE INHIBITOR” (SHANGHAI QILU PHARMACEUTICAL RESEARCH AND DEVELOPMENT …, priority 2021, published 2025) are described below.

One assay addresses SARS-COV-2 3CLpro/Mpro protease (Severe acute respiratory syndrome coronavirus 2 (2019-nCoV) (SARS-CoV-2), UniProt P0DTD1). The assay is described as follows: Inhibitory effect on SARS-COV-2 3CLpro/Mpro protease by fluorescence resonance energy transfer. The format is biochemical. The conditions noted are these: IC50 (nM), Inhibition on SARS-CoV-2 3CLpro/Mpro protease, activity intervals A-D.
On to `CNc1cncc(C(=O)N2CCC[C@@H](Nc3c(C(=O)N4CC5C=CC(C4)N5)cc(Br)cc3[N+](=O)[O-])C2)c1` [Example 335], for which the IC50 lay within 10 to 50 nM.

The same assay, now with this note: activity intervals A-D, read-out: IC50 (nM), Inhibition on SARS-CoV-2 3CLpro/Mpro protease.
For the compound `O=C(c1cc(=O)[nH]c(=O)[nH]1)N1CCC[C@@H](Nc2c(C(=O)N3CCC(F)(F)CC3)cc(Br)cc2[N+](=O)[O-])C1` [Example 53], the IC50 fell in the range of 50 to 100 nM.
On to `CNc1cncc(C(=O)N2CCC[C@@H](Nc3c(C(=O)N4CCOC[C@@H]4C)cc(Br)cc3[N+](=O)[O-])C2)c1` [Example 356], for which the IC50 lay in the range of 10 to 50 nM.
Turning to `CNc1cncc(C(=O)N2C[C@H](Nc3c(C(=O)N4C[C@@H](C)O[C@@H](C)C4)cc(Br)cc3[N+](=O)[O-])C[C@H]2C(N)=O)c1` [Example 379, (2S,4R)-4-((4-bromo-2-((2R,6S)-2,6-dimethylmorpholin-4-carbonyl)-6-nitrophenyl)amino)-1-(5-(methylamino)nicotinoyl) pyrrolidin-2-formamide], the IC50 was in the range of 10 to 50 nM.
As to `C[C@H]1C[C@H](C)CN(C(=O)c2cc(Br)cc([N+](=O)[O-])c2N[C@@H]2CCCN(C(=O)[C@H]3CC(=O)N[C@@H](C)C3)C2)C1` [Example 262], the IC50 lay in the range of 10 to 50 nM.
Regarding `O=C(c1cc(Br)cc([N+](=O)[O-])c1N[C@@H]1CCCN(C(=O)C2CNCC(F)(F)C2)C1)N1CCOC(F)(F)C1` (stereo in doubt) [Example 327], the IC50 is 10 to 50 nM.
In the case of `CNc1cncc(C(=O)N2C[C@H](Nc3c(C(=O)N4C[C@@H](C)O[C@@H](C)C4)cc(Br)cc3[N+](=O)[O-])C[C@H]2C(=O)Nc2nn(C3C[C@@H](C)O[C@@H](C)C3)cc2Br)c1` (some centres unmarked) [Example 438], the IC50 was 10 to 50 nM.
Take `CNc1cncc(C(=O)N2C[C@H](Nc3c(C(=O)N4C[C@@H](C)O[C@@H](C)C4)cc(Br)cc3[N+](=O)[O-])C[C@H]2C(=O)Nc2ccnc(C(F)(F)F)n2)c1` [Example 428]: the IC50 fell in the range of 50 to 100 nM.
On to `CNc1cncc(C(=O)N2CC(Nc3c(C(=O)N4CCC5(CCC5)CC4)cc(Br)cc3[N+](=O)[O-])C(C)(C)C2)c1` (centres unmarked) [Example 177], for which the IC50 was 10 to 50 nM.
Consider `CNc1cncc(C(=O)N2C[C@H](Nc3c(C(=O)N4C[C@@H](C)O[C@@H](C)C4)cc(Br)cc3[N+](=O)[O-])C[C@H]2C(=O)N[C@H]2CCN(CCOC)C2)c1` [Example 404], for which the IC50 was in the range of 100 to 200 nM.
As to `O=C(c1cc[nH]c(=O)c1)N1CCC[C@@H](Nc2c(C(=O)N3CCC(F)(F)CC3)cc(Br)cc2[N+](=O)[O-])C1` [Example 24, (R)-4-(3-((4-bromo-2-(4,4-difluoropiperidin-1-carbonyl)-6-nitrophenyl)amino)piperidin-1-carbonyl)pyridin-2 (1H)-one], the IC50 was in the range of 100 to 200 nM.
As for `CNc1cncc(C(=O)N2CCC[C@@H](Nc3c(C(=O)N4CCC5(CCOCC5)CC4)cc(Br)cc3[N+](=O)[O-])C2)c1` [Example 250], the IC50 was in the range of 10 to 50 nM.
Same read-out and setting: under `CNc1cncc(C(=O)N2C[C@H](Nc3c(C(=O)N4C[C@@H](C)O[C@@H](C)C4)cc(Br)cc3[N+](=O)[O-])C[C@H]2C(=O)Nc2cc3cn(C)nc3cc2Cl)c1` [Example 399] stands 50 to 100 nM.
`C[C@@H]1CN(C(=O)c2cc(Br)cc([N+](=O)[O-])c2N[C@@H]2CCCN(C(=O)c3cncc(Br)c3)C2)C[C@H](C)N1` [Example 73]: the IC50 is 10 to 50 nM.
`CNc1cncc(C(=O)N2CCC[C@@H](Nc3c(C(=O)N4CCC(N5C[C@@H](C)O[C@@H](C)C5)CC4)cc(Br)cc3[N+](=O)[O-])C2)c1` [Example 289]: the IC50 was in the range of 10 to 50 nM.
On to `CNc1cncc(C(=O)N2CCC[C@@H](Nc3c(C(=O)N4CCC(C)(C)CC4)cc(Br)cc3[N+](=O)[O-])C2)c1` [Example 252], for which the IC50 was 10 to 50 nM.
`CNc1cncc(C(=O)N2C[C@H](Nc3c(C(=O)N4CCN(CCOC)CC4)cc(Br)cc3[N+](=O)[O-])C(C)(O)C2)c1` (some centres unmarked) [Example 318]: the IC50 lay within 10 to 50 nM.
For the compound `CNc1cncc(C(=O)N[C@H]2CCOC[C@H]2Nc2c(C(=O)N3C[C@H](C)O[C@@H](C)C3)cc(Br)cc2[N+](=O)[O-])c1` [Example 224], the IC50 fell in the range of 10 to 50 nM.
Turning to `CNc1cncc(C(=O)N2CCC[C@@H](Nc3c(C(=O)N4C[C@H](C)C[C@H](C)C4)cc(Br)cc3[N+](=O)[O-])C2)c1` [Example 251], the IC50 was 50 to 100 nM.
For the compound `CNc1cncc(C(=O)N2CCC[C@@H](Nc3c(C(=O)N4CC(=O)NC(C)C4)cc(Br)cc3[N+](=O)[O-])C2)c1` (some centres unmarked) [Example 96], the IC50 was 50 to 100 nM.
Still for that read-out and setting: next, `CC1(O)CCN(C(=O)c2cc(Br)cc(C(F)(F)F)c2N[C@@H]2CCCC[C@@H]2NC(=O)c2cncc3cc(Cl)ccc23)CC1` [Example 169]: 10 to 50 nM; `CNc1cncc(C(=O)N2CCC[C@@H](Nc3c(C(=O)N4CC(F)(F)C(F)(F)C4)cc(Br)cc3[N+](=O)[O-])C2)c1` [Example 273]: 10 to 50 nM.
In the case of `O=C(N[C@H]1CCCC[C@H]1Nc1c(C(=O)N2CCCC2)cc(Br)cc1[N+](=O)[O-])c1cncc2ccccc12` [Example 3, N-((1S,2R)-2-((4-bromo-2-nitro-6-(pyrrolidin-1-carbonyl)phenyl)amino)cyclohexyl) isoquinolin-4-formamide], the IC50 is below 10 nM.
With `CC1(O)CN(C(=O)c2cncc(Br)c2)C[C@@H]1Nc1c(C(=O)N2CCCCC2)cc(Br)cc1[N+](=O)[O-]` (some centres unmarked) [Example 246], the IC50 lay within 10 to 50 nM.
Turning to `CNc1cncc(C(=O)N2CCC[C@@H](Nc3c(C(=O)N4CC5COCC5C4)cc(Br)cc3[N+](=O)[O-])C2)c1` (some centres unmarked) [Example 232], the IC50 is 10 to 50 nM.
Turning to `CNc1cncc(C(=O)N2C[C@H](Nc3c(C(=O)N4C[C@@H](C)O[C@@H](C)C4)cc(Br)cc3[N+](=O)[O-])C[C@H]2C(=O)NCc2ccccc2)c1` [Example 390], the IC50 fell in the range of 10 to 50 nM.
Consider `CNc1cncc(C(=O)N2CCC[C@@H](Nc3c(C(=O)N4CCO[C@H](CF)C4)cc(Br)cc3[N+](=O)[O-])C2)c1` [Example 37], for which the IC50 lay within 10 to 50 nM.
For the compound `CNc1cncc(C(=O)N2CCC[C@@H](Nc3c(C(=O)N4CCn5cncc5C4)cc(Br)cc3[N+](=O)[O-])C2)c1` [Example 314], the IC50 fell in the range of 10 to 50 nM.
For `CNc1cncc(C(=O)N2CC(Nc3c(C(=O)N4CCC[C@@H](C)C4)cc(Br)cc3[N+](=O)[O-])C(C)(C)C2)c1` (some centres unmarked) [Example 174], the IC50 fell in the range of 10 to 50 nM.
Consider `CNc1cncc(C(=O)N2C[C@H](Nc3c(C(=O)N4C[C@@H](C)O[C@@H](C)C4)cc(Br)cc3[N+](=O)[O-])C[C@@H](OCCOC)C2)c1` [Example 446], for which the IC50 was in the range of 10 to 50 nM.
As to `CNc1cncc(C(=O)N2C[C@H](Nc3c(C(=O)N4C[C@@H](C)O[C@@H](C)C4)cc(Br)cc3[N+](=O)[O-])C[C@H]2C(=O)Nc2cc3nn(C)cc3cc2Cl)c1` [Example 429], the IC50 fell in the range of 100 to 200 nM.
`CNc1cncc(C(=O)N[C@H]2CCCC[C@H]2Nc2c(C(=O)N3C[C@@H](C)O[C@H](C)C3)cc(Br)cc2[N+](=O)[O-])c1` [Example 223]: the IC50 was in the range of 10 to 50 nM.
On the same count and under the same terms, next, `CNc1cncc(C(=O)N2C[C@H](Nc3c(C(=O)N4C[C@@H](C)O[C@@H](C)C4)cc(Br)cc3[N+](=O)[O-])[C@@H](OCc3ccc(C(F)(F)F)nc3)C2)c1` [Example 457, (5-Bromo-2-((3S,4S)-1-(5-(methylamino)nicotinoyl)-4-((6-(trifluoromethyl)pyridin-3-yl)methoxy)pyrrolidin-3-amino)-3-nitrophenyl)((2S,6R)-2,6-dimethylmorpholinyl)methanone]: 100 to 200 nM; `O=C(c1cc(Br)cc(C(F)(F)F)c1N[C@@H]1CCCN(C(=O)c2cncc3ccccc23)C1)N1CCCCC1` [Example 67]: 10 to 50 nM; `O=C(c1cc(Br)cc([N+](=O)[O-])c1N[C@@H]1CCCN(C(=O)c2cncc3cc(F)ccc23)C1)N1CCCCC1` [Example 103]: 10 to 50 nM.
As to `C[C@@H]1CN(C(=O)c2cc(Br)cc([N+](=O)[O-])c2N[C@@H]2CCCC[C@@H]2NC(=O)c2cncc3cc(Cl)ccc23)C[C@H](C)N1` [Example 131], the IC50 was 10 to 50 nM.
Regarding `CNc1cncc(C(=O)N2C[C@H](Nc3c(C(=O)N4CCO[C@H](C)C4)cc(Br)cc3[N+](=O)[O-])[C@@H](OC)C2)c1` [Example 322], the IC50 was in the range of 10 to 50 nM.
For `O=C(N[C@H]1CCCC[C@H]1Nc1c(C(=O)N2CC[C@@H](O)C2)cc(Br)cc1C(F)(F)F)c1cncc2cc(Cl)ccc12` [Example 126], the IC50 is 10 to 50 nM.
On the same count and under the same terms, next, `CNc1cncc(C(=O)N2CCC[C@@H](Nc3c(C(=O)N4CCC(OC)(C(F)(F)F)CC4)cc(Br)cc3[N+](=O)[O-])C2)c1` [Example 281]: 50 to 100 nM; `O=C(c1cc(Br)cc([N+](=O)[O-])c1N[C@@H]1CCCN(C(=O)c2cc(=O)[nH]c3cc(Cl)ccc23)C1)N1CCCCC1` [Example 128]: 10 to 50 nM.
Same read-out and setting: under `O=C(N[C@H]1CCCC[C@H]1Nc1c(C(=O)N2CCN(CCO)CC2)cc(Br)cc1[N+](=O)[O-])c1cncc2cc(Cl)ccc12` [Example 118] stands 10 to 50 nM.
For `CNc1cncc(C(=O)N2CC(Nc3c(C(=O)N4CCCCC4)cc(Br)cc3[N+](=O)[O-])C(F)(F)C2)c1` (centres unmarked) [Example 32, (5-Bromo-2-((4,4-difluoro-1-(5-(methylamino)nicotinoyl)pyrrolidin-3-yl)amino)-3-nitrophenyl)(piperidin-1-yl)methanone], the IC50 lay within 10 to 50 nM.
Turning to `CNc1cncc(C(=O)N2C[C@H](Nc3c(C(=O)N4C[C@@H](C)O[C@@H](C)C4)cc(Br)cc3[N+](=O)[O-])C[C@H]2C(=O)NCCOC)c1` [Example 394], the IC50 was 50 to 100 nM.
Same read-out and setting: under `CNc1cncc(C(=O)N2CCC[C@@H](Nc3c(C(=O)N4CC(C)CC(O)C4)cc(Br)cc3[N+](=O)[O-])C2)c1` (some centres unmarked) [Example 258] stands 10 to 50 nM; under `CNc1cncc(C(=O)N2C[C@H](Nc3c(C(=O)N4C[C@@H](C)O[C@@H](C)C4)cc(Br)cc3[N+](=O)[O-])C[C@H]2C(=O)N(C)C)c1` [Example 377], 50 to 100 nM.
Consider `CNc1cncc(C(=O)N2C[C@H](Nc3c(C(=O)N4C[C@@H](C)O[C@@H](C)C4)cc(Br)cc3[N+](=O)[O-])C(F)(F)C2)c1` [Example 182], for which the IC50 is 10 to 50 nM.
`Cc1cc(C(=O)N2CCC[C@@H](Nc3c(C(=O)N4CC5CC5C4)cc(Br)cc3[N+](=O)[O-])C2)cc(=O)[nH]1` (some centres unmarked) [Example 148]: the IC50 lay in the range of 50 to 100 nM.
